Several values for one entry are separate records, joined by “and”; a condition that tells them apart may be missing. Identical values can stand only once. Entries after “also recorded” stand apart in the source; their conditions may differ. Like-named read-outs stand apart in the source and are kept apart here.
Key:
STZ-induced diabetes = STZ-induced diabetes model; format: in vivo; details: STZ-diabetic mice, repetitive K883 500 μg/mouse, vs PBS
Method: Mice were administered repetitive administration of […] (500 μg/mouse). […] Repetitive administration of […] was therefore shown to be beneficial in STZ-induced diabetes. […] (*: P<0.05 vs. PBS group. N=6-8 mice per group).

[1] = test system: influenza virus A/PR/8/34 (PR8); assay: lethal influenza infection model; format: in vivo; details: C57BL/6J mice; K883 100 ug/mouse intraperitoneally for 5 consecutive days from two days after infection; vs vehicle
[2] = test system: liver ischemia and reperfusion injury; assay: warm liver ischemia and reperfusion (I/R) model; format: in vivo, mouse; details: 6 hours after reperfusion, K883 vs vehicle control; FIGS. 21A-C
Method: […] (SEQ ID NO: 1) (or vehicle control) was administered intraperitoneally at 500 μg/mouse at the time of I/R surgery and euthanized 6 hours later. Serum levels of ALT and AST were reduced in […] (SEQ ID NO: 1)-treated group vs. vehicle controls. *: P<0.05 vs. I/R group. n=5-7 mice/group.

[3] = stability under acidic conditions (LC-MS); format: physicochemical; details: pH=2, two hours
[4] = test system: PAMPs-induced TNF release (LPS, PGN, poly I:C, S100A12); assay: PAMPs-induced TNF release in human macrophages; format: cell-based; details: human primary macrophages, increasing amounts of K883, 16 hours
Method: TNF released was measured.

[5] = pharmacokinetics after intravenous administration in rats (LC-MS); details: IV 1 mg/kg
[6] = test system: CCI-induced neuropathic pain; assay: chronic constriction injury (CCI) of the sciatic nerve neuropathic pain model; format: in vivo, rat
Method: The CCI rats each received surgery. […] Mechanical and thermal sensitivity tests were also performed over time. Hargreaves Thermal Hypersensitivity test was administered to the rats as well as Von Frey mechanical hypersensitivity test.
Rats (male Wistar, 150-180 gm, n=6/group) had CCI surgery. […] Two weeks after surgery, thermal (Hargreaves) or mechanical (von Frey) hypersensitivity was assessed. *: P<0.05 vs. PBS group.
In this experiment, male Wistar rats (n=6/group) had CCI surgery. […] Mechanical allodynia was assessed 5 hours later. N=6-8 rats/group. *: p<0.05) vs. HMGB 1 alone. Mechanical and thermal sensitivity tests were also performed over time.

[7] = test system: APAP-induced liver injury; assay: APAP-induced liver injury model; format: in vivo, mouse
[8] = test system: liver ischemia and reperfusion injury; details: cited from earlier work
[9] = test system: PAMPs-induced TNF release (LPS, PGN, poly I:C, S100A12); details: Yang 2015; cited from earlier work
[10] = test system: APAP-induced liver injury; details: cited from earlier work

**Q.** What does the source list for `NC(=O)N(CCC(=O)O)NC(=O)[C@H](CO)NC(=O)[C@H](CO)NC(=O)N(N)Cc1ccccc1` [K883]?
**A.** hyperglycemia (STZ-induced diabetes): delays hyperglycemia; insulitis (STZ-induced diabetes): reduces insulitis; weight gain (STZ-induced diabetes): improves weight gain; survival (14 days) after PR8 infection [1]: significant survival; liver inflammation, H&E (neutrophil infiltration) [2]: reduced inflammation; stability under acidic conditions [3]: resistant to acid hydrolysis; inhibition of TNF release induced by other PAMPs (LPS, PGN, AGE, Poly I:C) [4]: failed to inhibit other PAMPS; also recorded: does not inhibit other PAMPs; AUC∞ ([5]; Mean): 3778 ng·h/mL; AUC∞ ([5]; individual rats, 1 mg/kg): 3808 ng·h/mL and 3751 ng·h/mL; tolerance to repeated treatment ([6]; K883 800 μg/rat IP once daily for three days, evaluated for 2 weeks): did not develop tolerance; Paw Withdrawal Latency ([6]; NO CCI (reference value)): 9.5 ± 1.0 s; CCI-induced thermal (Hargreaves) and mechanical (von Frey) hypersensitivity ([6]; male Wistar rats, K883 800 μg/rat IP once a day for 3 days, vs PBS): ameliorated both mechanical and thermal hypersensitivity; also recorded: improved CCI-induced thermal and mechanical hypersensitivity; also recorded: ameliorated the thermal hypersensitivity; CCI-induced CXCL1, TNF and IL-1β expression (spine) ([6]; spine): reduce CCI-induced CSCL1, TNF and IL-1(3 expression; serum ALT ([7]; 50 ugs/mouse of K883, vs vehicle controls): reduced serum ALT; liver necrosis (H&E) ([7]; APAP 350 mg/kg IP, K883 50 μg/mouse IP at 2 and 7 hours post-APAP, 24 hours, vs vehicle): reduced liver necrosis; survival (2 weeks) post-APAP ([7]; APAP 400 mg/kg, 50 μg/mouse IP once-a-day for 5 days starting 2 hours post-APAP, 8 in the control group): 14 mice out of 15

**Q.** What does the source list for `NC(=O)[C@H](CCC(=O)O)NC(=O)[C@H](CO)NC(=O)[C@H](CO)NC(=O)[C@@H](N)Cc1ccccc1` [P5779]?
**A.** liver inflammation, H&E (neutrophil infiltration) ([8]; 6 hours after reperfusion, P5779 vs vehicle control): reduced inflammation; serum levels of ALT and AST ([8]; male C57BL/6 mice, 500 μg/mouse IP at the time of I/R surgery, 6 hours, vs vehicle): reduced; suppression of TNF release in macrophages stimulated by LPS, PGN, Poly I:C, CpG DNA or S100 A12 [9]: not suppress TNF release; liver necrosis (H&E) ([10]; APAP 350 mg/kg, P5779 50 or 500 μg/mouse IP at 2 and 7 hours post-APAP, vs scrambled control peptide): reduced liver necrosis; percent survival (2 weeks) post-APAP ([10]; APAP 400 mg/kg, P5779 500 μg/mouse IP once a day for 5 days starting 2 hours post-APAP): significantly improved

Source: patent US11684652B2, “HMGB1 antagonist treatment of acute lung injury” (THE FEINSTEIN INSTITUTES FOR MEDICAL RESEARCH, priority 2019, dated 2023)
